Measured values reported in article PMC9944328 (Nature Communications, 2023).
Like-named read-outs stand apart in the source and are kept apart here.

Test system: SSTR2 mutants
Experiment: NanoBiT β-arrestin 1 recruitment assay, HEK293 (SSTR2 mutants);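 on Emax: percent of the maximal wild-type SSTR2 response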
Format: cell-based, human
Conditions: for Fold of WT: β-arrestin recruitment EC50
Method: The NanoBiT β-arrestin 1 recruitment assays were carried out according to the method described previously. […] Human full-length SSTR wild-type and mutant vectors were C-terminally fused with a 15-amino acid flexible linker and the small fragment (SmBiT). HEK293 cells were seeded into six-well microplates at a density of 1.0 × 10^6 cells/well and cultured for 24 h at 37 °C with 5% CO2. After that, cells were co-transfected with pcDNA3.1+ vectors encoding SSTR wild-type or mutants and human β-arrestin 1. After transfecting for 24 h, the transfected cells were suspended and seeded into white 96-well plates, and then cultured at 37 °C overnight. After that the medium in each well was exchanged for 90 μl of 0.01% bovine serum albumin containing 20 μl of 50 μM coelenterazine h (Carbosynth) diluted in the HBSS assay buffer and incubated for 40 min at room temperature. Then, ligands diluted in the assay buffer was added to each well and the luminescence intensity was measured using the Synergy H1 microplate reader and detected at room temperature in a time period. All data presented are means of at least three independent experiments.

[1] = β-arrestin recruitment, SSTR2 F127(3.37)A, n=3
[2] = β-arrestin recruitment, SSTR2 F294(7.35)A, n=3, ND = not detected
[3] = β-arrestin recruitment, SSTR2 I284ECL3A, n=3
[4] = β-arrestin recruitment, SSTR2 K291(7.32)A, n=3, ND = not detected
[5] = β-arrestin recruitment, SSTR2 N276(6.55)A, n=3, ND = not detected
[6] = β-arrestin recruitment, SSTR2 W269(6.48)A, n=3
[7] = β-arrestin recruitment, SSTR2 Y50(1.39)A, n=3
[8] = β-arrestin recruitment, SSTR2 Y205(5.35)A, n=3
[9] = β-arrestin recruitment, SSTR2 Y302(7.43)A, n=3

N#Cc1cccc(-c2ccc3ncc(-c4cc(F)cc(F)c4)c(N4CCC(N)CC4)c3c2)c1O [paltusotine]
LogEC50 (β-arrestin1 recruitment) (best-fit, K291A-2): -7.045 | Span (β-arrestin1 recruitment) (best-fit, K291A-2): 143.2 | Top (β-arrestin1 recruitment) (best-fit, K291A-2): 139.9 | Bottom (β-arrestin1 recruitment) (best-fit, K291A-3): -4.699 | LogEC50 (β-arrestin1 recruitment) (best-fit, K291A-3): -6.141 | Span (β-arrestin1 recruitment) (best-fit, K291A-3): 138.3 | Top (β-arrestin1 recruitment) (best-fit, K291A-3): 133.6 | Bottom (β-arrestin1 recruitment) (best-fit, N276A-1): -2.311 | LogEC50 (β-arrestin1 recruitment) (best-fit, N276A-1): -7.135 | Span (β-arrestin1 recruitment) (best-fit, N276A-1): 170 | Top (β-arrestin1 recruitment) (best-fit, N276A-1): 167.7 | Bottom (β-arrestin1 recruitment) (best-fit, N276A-2): -1.74 | LogEC50 (β-arrestin1 recruitment) (best-fit, N276A-2): -7.135 | Span (β-arrestin1 recruitment) (best-fit, N276A-2): 128 | Top (β-arrestin1 recruitment) (best-fit, N276A-2): 126.3 | Bottom (β-arrestin1 recruitment) (best-fit, N276A-3): -2.993 | LogEC50 (β-arrestin1 recruitment) (best-fit, N276A-3): -7.215 | Span (β-arrestin1 recruitment) (best-fit, N276A-3): 180.6 | Top (β-arrestin1 recruitment) (best-fit, N276A-3): 177.6 | Bottom (β-arrestin1 recruitment) (best-fit, Y302A-1): 0.04519 | LogEC50 (β-arrestin1 recruitment) (best-fit, Y302A-1): -6.65 | Span (β-arrestin1 recruitment) (best-fit, Y302A-1): 206.8 | Top (β-arrestin1 recruitment) (best-fit, Y302A-1): 206.8 | Bottom (β-arrestin1 recruitment) (best-fit, Y302A-2): -0.03402 | LogEC50 (β-arrestin1 recruitment) (best-fit, Y302A-2): -6.645 | Span (β-arrestin1 recruitment) (best-fit, Y302A-2): 207.2 | Top (β-arrestin1 recruitment) (best-fit, Y302A-2): 207.2 | Bottom (β-arrestin1 recruitment) (best-fit, Y302A-3): -0.02562 | LogEC50 (β-arrestin1 recruitment) (best-fit, Y302A-3): -6.645 | Span (β-arrestin1 recruitment) (best-fit, Y302A-3): 156 | Top (β-arrestin1 recruitment) (best-fit, Y302A-3): 156 | EC50 (read-out: Best-fit EC50, SSTR2 I284A, run 1): 0.181 µM | EC50 (read-out: Best-fit EC50, SSTR2 I284A, run 3): 0.18 µM | EC50 (read-out: Best-fit EC50, SSTR2 Y50A, run 1): 0.0744 µM | EC50 (read-out: Best-fit EC50, SSTR2 Y50A, run 2): 0.065 µM | EC50 (read-out: Best-fit EC50, SSTR2 Y50A, run 3): 0.0667 µM | EC50 (read-out: EC50 (best-fit value), SSTR2 W269A, run W269A-1): 0.3 µM | EC50 (read-out: EC50 (best-fit value), SSTR2 W269A, run W269A-2): 0.61 µM | EC50 (read-out: EC50 (best-fit value), SSTR2 W269A, run W269A-3): 0.474 µM | EC50 (read-out: EC50 (best-fit value), SSTR2 Y205A, run Y205A-2): 0.15 µM | EC50 (read-out: EC50 (best-fit value), SSTR2 Y205A, run Y205A-3): 0.213 µM | EC50 (read-out: EC50 (best-fit), F127A-1): 0.21 µM | EC50 (read-out: EC50 (best-fit), F127A-2): 0.197 µM | EC50 (read-out: EC50 (best-fit), F127A-3): 0.152 µM | EC50 (read-out: EC50 (β-arrestin1 recruitment), best-fit, D295A-1): 2.32 µM | EC50 (read-out: EC50 (β-arrestin1 recruitment), best-fit, D295A-2): 2.54 µM | EC50 (read-out: EC50 (β-arrestin1 recruitment), best-fit, D295A-3): 1.97 µM | EC50 (read-out: EC50 (β-arrestin1 recruitment), best-fit, F294A-1): 1.05 µM | EC50 (read-out: EC50 (β-arrestin1 recruitment), best-fit, F294A-3): 0.872 µM | EC50 (read-out: EC50 (β-arrestin1 recruitment), best-fit, K291A-1): 0.0797 µM | EC50 (read-out: EC50 (β-arrestin1 recruitment), best-fit, K291A-2): 0.0902 µM | EC50 (read-out: EC50 (β-arrestin1 recruitment), best-fit, N276A-1): 0.0732 µM | EC50 (read-out: EC50 (β-arrestin1 recruitment), best-fit, N276A-3): 0.061 µM | EC50 (read-out: EC50 (β-arrestin1 recruitment), best-fit, Y302A-1): 0.224 µM | EC50 (read-out: EC50 (β-arrestin1 recruitment), best-fit, Y302A-2): 0.226 µM | Fold of WT (SSTR2 D295(7.36)A): 1.22 | Fold of WT (SSTR2 F127(3.37)A): 0.49 | Fold of WT (SSTR2 F294(7.35)A): 2.44 | Fold of WT (SSTR2 I284ECL3A): 0.45 | Fold of WT (SSTR2 K291(7.32)A): 0.21 | Fold of WT (SSTR2 N276(6.55)A): 0.17 | Fold of WT (SSTR2 W269(6.48)A): 2.65 | Fold of WT (SSTR2 Y50(1.39)A): 0.17 | Fold of WT (SSTR2 Y205(5.35)A): 0.42 | Fold of WT (SSTR2 Y302(7.43)A): 0.56 | Emax (β-arrestin recruitment, SSTR2 D295(7.36)A, detected at 10 μM, n=3): 87.12±2.30 %WT | EC50 (β-arrestin recruitment, SSTR2 D295(7.36)A, n=3): 0.4957 ± 0.00176 µM | EC50 [1]: 0.198 ± 0.00666 µM | Emax [1]: 60.24±1.11 %WT | Emax (β-arrestin recruitment, SSTR2 F208(5.38)A, detected at 10 μM, n=3): 70.89±2.39 %WT | Emax (β-arrestin recruitment, SSTR2 F265(6.44)A, detected at 10 μM, n=3 octreotide, 4 paltusotine): 49.61±1.04 %WT | EC50 [2]: 0.9907 ± 0.00593 µM | Emax [2]: 114.80±11.09 %WT | Emax (β-arrestin recruitment, SSTR2 I130(3.40)A, detected at 10 μM, n=3): 30.45±0.36 %WT | EC50 [3]: 0.181 ± 0.00333 µM | Emax [3]: 192.70±19.45 %WT | EC50 [4]: 0.0867 ± 0.0035 µM | Emax [4]: 133.50±14.76 %WT | Emax (β-arrestin recruitment, SSTR2 L99(2.60)A, detected at 10 μM, n=3): 84.26±3.71 %WT | EC50 [5]: 0.0691 ± 0.00407 µM | Emax [5]: 157.20±15.71 %WT | Emax (β-arrestin recruitment, SSTR2 P220(5.50)A, detected at 10 μM, n=4): 50.55±2.81 %WT | Emax (β-arrestin recruitment, SSTR2 Q102(2.63)A, detected at 10 μM, n=3): 26.07±1.00 %WT | Emax (β-arrestin recruitment, SSTR2 Q126(3.36)A, detected at 10 μM, n=3): 65.37±3.31 %WT | Emax (β-arrestin recruitment, SSTR2 T194(45.51)A, n=3): 95.9±9.02 %WT | EC50 [6]: 1.077 ± 0.00628 µM | Emax [6]: 50.80±24.99 %WT | EC50 [7]: 0.0687 ± 0.00287 µM | Emax [7]: 90.74±11.02 %WT | EC50 [8]: 0.172 ± 0.00207 µM | Emax [8]: 152.00±23.85 %WT | EC50 [9]: 0.225 ± 0.00667 µM | Emax [9]: 190.00±17.00 %WT
